Measurements as given in patent publication US12122761B2, “2-azaspiro[3.4]octane derivatives as M4 agonists” (NOVARTIS AG, priority 2019, dated 2024).

Experiments:
[1] = molecular target: T1, human cloned CHRM2 receptor (M2_CHO cells) (Homo sapiens, UniProt P08172); assay: CHRM2 Ca++ Flux Assay (agonist mode, FDSS 7000EX); assay type: cell-based; settings: for Emax: Percent Activity measured to EC100 of Carbachol, read-out: M2 FDSS PA
T1 construct: expressed in transfected cells; host or cells: CHO-K1
T1 sequence (P08172 1-466): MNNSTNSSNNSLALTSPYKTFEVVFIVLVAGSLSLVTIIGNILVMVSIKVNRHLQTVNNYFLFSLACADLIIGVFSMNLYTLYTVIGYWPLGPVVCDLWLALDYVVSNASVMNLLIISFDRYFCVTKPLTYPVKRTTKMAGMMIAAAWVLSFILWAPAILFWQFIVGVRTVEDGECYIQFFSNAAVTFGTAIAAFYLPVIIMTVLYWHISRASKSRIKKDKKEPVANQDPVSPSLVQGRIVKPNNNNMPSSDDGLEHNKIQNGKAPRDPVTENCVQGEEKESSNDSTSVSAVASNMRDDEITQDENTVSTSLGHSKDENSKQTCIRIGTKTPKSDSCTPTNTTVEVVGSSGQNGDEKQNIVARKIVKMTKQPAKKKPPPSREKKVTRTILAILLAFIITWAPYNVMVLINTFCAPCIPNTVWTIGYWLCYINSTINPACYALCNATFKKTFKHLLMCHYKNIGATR
How it was run: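 Response expressed as percent activity versus the Carbachol EC100, with curves fitted by four-parameter non-linear regression of triplicates. Stable M2_CHO cells were Ca++ dye-loaded and preincubated 60 min at room temperature in assay buffer containing 20 μM ATP; signal imaged for 3 minutes after compound.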

[2] = molecular target: T2, human cloned CHRM5 receptor (M5_CHO) (Homo sapiens, UniProt P08912); assay: CHRM5 Ca++ Flux Assay (agonist mode, FDSS 7000EX); assay type: cell-based; settings: for Emax: Percent Activity measured to EC100 of Carbachol, read-out: M5 FDSS PA; for EC50: agonist mode, geometric mean if tested more than once, read-out: M5 FDSS EC50
T2 construct: expressed in transfected cells; host or cells: CHO (M5_CHO)
T2 sequence (P08912 1-532): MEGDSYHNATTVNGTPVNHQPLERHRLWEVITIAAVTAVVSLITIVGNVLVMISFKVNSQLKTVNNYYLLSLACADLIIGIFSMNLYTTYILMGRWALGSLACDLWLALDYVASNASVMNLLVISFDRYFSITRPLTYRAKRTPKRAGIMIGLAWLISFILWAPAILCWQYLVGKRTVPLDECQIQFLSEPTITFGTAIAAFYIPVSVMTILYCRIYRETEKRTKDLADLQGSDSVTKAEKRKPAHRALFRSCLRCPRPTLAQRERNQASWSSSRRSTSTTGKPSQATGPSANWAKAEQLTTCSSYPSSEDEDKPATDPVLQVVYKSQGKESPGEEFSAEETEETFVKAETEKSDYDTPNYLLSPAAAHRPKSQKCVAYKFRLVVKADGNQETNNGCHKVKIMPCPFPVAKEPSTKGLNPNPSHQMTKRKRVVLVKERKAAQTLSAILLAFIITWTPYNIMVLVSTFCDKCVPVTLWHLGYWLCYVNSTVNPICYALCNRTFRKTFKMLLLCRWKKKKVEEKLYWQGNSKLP
How it was run: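 Fluorescent intracellular Ca++ signal, recorded for 3 min, served as read-out for CHO-K1 cells stably carrying human M3 or M5 receptor. Triplicate 11-point dose responses were averaged and fitted to a four-parameter model, with percent activity referenced to the carbachol EC100.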

Structure (SMILES) | Emax [1] [%] | EC50 ([1]; agonist mode, geometric mean if tested more than once, read-out: M2 FDSS EC50) [µM] | Emax [2] [%] | EC50 [2] [µM]
Cc1ccc(N2CC3(CC[C@@H](N4CCC(c5ccccc5O[C@@H]5CCOC5)CC4)C3)C2)cn1 [Example 5L, (R)-2-(6-methylpyridin-3-yl)-6-(4-(2-(((R)-tetrahydrofuran-3-yl)oxy)phenyl)piperidin-1-yl)-2-azaspiro[3.4]octane] | 36 | 7.88 | 17 | 14.4
COc1ccccc1C1CCN([C@@H]2CCC3(C2)CN(c2ncnc(C)n2)C3)CC1 [Example 5M, (R)-6-(4-(2-methoxyphenyl)piperidin-1-yl)-2-(4-methyl-1,3,5-triazin-2-yl)-2-azaspiro[3.4]octane] | 0 | – | 0 | > 25
COc1ccccc1C1CCN([C@@H]2CCC3(C2)CN(c2ccc(Cl)nn2)C3)CC1 [Example 5N, (R)-2-(6-chloropyridazin-3-yl)-6-(4-(2-methoxyphenyl)piperidin-1-yl)-2-azaspiro[3.4]octane] | 35 | – | 8 | 22.9
COc1ccccc1C1CCN([C@@H]2CCC3(C2)CN(c2cccnn2)C3)CC1 [Example 5O, (R)-6-(4-(2-methoxyphenyl)piperidin-1-yl)-2-(pyridazin-3-yl)-2-azaspiro[3.4]octane] | 0 | – | 0 | > 25
COc1ccc(Cl)cc1C1CCN([C@@H]2CCC3(C2)CN(c2ccnnc2)C3)CC1 [Example 5P, (R)-6-(4-(5-chloro-2-methoxyphenyl)piperidin-1-yl)-2-(pyridazin-4-yl)-2-azaspiro[3.4]octane] | 16 | – | 8 | 13.4
c1ccc(C2CCN([C@@H]3CCC4(C3)CN(c3ncncn3)C4)CC2)c(OCC2CCOCC2)c1 [Example 5Q, (R)-6-(4-(2-((tetrahydro-2H-pyran-4-yl)methoxy)phenyl)piperidin-1-yl)-2-(1,3,5-triazin-2-yl)-2-azaspiro[3.4]octane] | 0 | – | 0 | > 25
COc1ccccc1C1CCN([C@@H]2CCC3(C2)CN(c2cc(Cl)nnc2Cl)C3)CC1 [Example 5R, (R)-2-(3,6-dichloropyridazin-4-yl)-6-(4-(2-methoxyphenyl)piperidin-1-yl)-2-azaspiro[3.4]octane] | 0 | – | 1 | > 25
COc1ccccc1C1CCN([C@@H]2CCC3(C2)CN(c2ccnnc2)C3)CC1 [Example 5S, (R)-6-(4-(2-methoxyphenyl)piperidin-1-yl)-2-(pyridazin-4-yl)-2-azaspiro[3.4]octane] | 0 | – | 0 | > 25
